# Experimental data taken from patent US20250057426A1, “COMPUTER-IMPLEMENTED METHODS AND ASSOCIATED SYSTEMS FOR DETECTING MALIGNANCY” (The Trustees of the University of Pennsylvania, priority 2021, published 2025).
# System: pulmonary lesions
# Assay: Tumor-to-background ratio (TBR) during OTL38-based intraoperative molecular imaging (IMI)-guided lung resection
# Type: in vivo, patients
# Settings: OTL38 0.025 mg/kg infused up to 24 h prior to surgery
# Procedure: Appropriate authorization was obtained from the University of Pennsylvania Perelman School of Medicine Institutional Review Board prior to data collection. Data was retrospectively analyzed from a prospectively collected database. Surgical procedures were performed by the surgeons at the Department of Thoracic Surgery at the Hospital of the University of Pennsylvania. A total of 279 patients were included in the study. All patients enrolled in the study presented with suspicious pulmonary nodules in conjunction with the recommendations from the Fleischner Society Guidelines for Pulmonary Nodules based on high-quality 1 mm slice thickness CT scanning. Based on institutional practice patterns, pre-operative tissue sampling and diagnosis was not mandatory. Selected patients underwent appropriate pre-operative clearance and metastatic disease work up prior to operative scheduling with video-assisted thoracoscopic surgical (VATS) lobectomy being the procedure of choice.
# Analyzed patients underwent infusion of the study drug OTL38 (0.025 mg/kg) up to 24 h prior to surgery. OTL38 (C61H63N9Na4O17S4, MW: 1414.42) is a folate analog conjugated to the NIR dye, S0456. OTL38 excites at 774-776 nm and emits at 794-796 nm. […] The iridium system utilizes an excitation laser with a wavelength of 805 nm, with fluorescence detection based on a bandpass filter selective to light ranging from 825 to 850 nm. […]
# Postoperatively, all the IMI images were uploaded to the deidentified secure database for analysis. Mean fluorescence intensity of the tumors was calculated from ImageJ (from National Institutes of Health) software with minimum 1000 pixels being included in the analysis. To minimize inter-observer bias, a protocol was established where the in situ and ex vivo TBRs were calculated by three blinded independent observers. Results were re-calculated by different observers if at least two blinded observer TBR measurements were not correlating (TBR values ±0.2 from each other). TBR results were then compared to final pathological diagnosis and analyzed for their correlation with in situ fluorescence. […]
structure (smiles),measurement,setting,value
CC1(C)C(/C=C/C2=C(Oc3ccc(C[C@H](NC(=O)c4ccc(NCc5cnc6nc(N)[nH]c(=O)c6n5)cc4)C(=O)[O-])cc3)C(=C/C=C3\N(CCCCS(=O)(=O)[O-])c4ccc(S(=O)(=O)[O-])cc4C3(C)C)/CCC2)=[N+](CCCCS(=O)(=O)[O-])c2ccc(S(=O)(=O)[O-])cc21.[H+].[H+].[H+].[H+] [OTL38],"In situ TBR, mean","entire cohort of 279 patients, Iridium NIR imaging, ImageJ",2.84
same,"Ex vivo TBR bisected tumor, mean","entire cohort, bisected specimen, 0.025 mg/kg",4
same,"Ex vivo TBR (back table), mean","entire cohort, resected specimen",3.09
